Test results from patent publication US11105794B2, “In vitro nephrotoxicity screening assay” (Hoffmann-La Roche Inc., priority 2016, dated 2021).
l = locked nucleic acid (LNA); d = 2'-deoxy (DNA)

System: PTEC-TERT1 cells
Assay: Morphological changes of PTEC-TERT1 cells upon oligonucleotide treatment
Assay type: cell-based, human
Conditions: 100 μM oligonucleotide, 7 days, bright field microscopy, vs saline
Experimental: PTEC-TERT1 cells were cultures as described in the “Materials and methods” section. To mimic the physiological exposure of renal tubules to circulating naked oligonucleotide (i.e. without assistance of delivery technology, herein termed gymnosis or gymnotic delivery), confluent monolayers of PTEC-TERT1 cells were exposed to an aqueous solution of 100 μM oligonucleotide. The medium was replaced every three days including 100 μM fresh oligonucleotide in the fresh medium.
After 7 days of treatment the morphological alterations in the treated cell cultures were investigated under bright field microscopy.

Substance	morphological changes
GCtgtgtgagcttGG (antisense GCTGTGTGAGCTTGG; sugars from the 5' end l2 d11 l2, backbone and methylation of C not given here) [Compound 4-1]	adopted a flattened and stable appearance
TGCtacaaaacCCA (antisense TGCTACAAAACCCA; sugars from the 5' end l3 d8 l3, backbone and methylation of C not given here) [Compound 3-1]	formed irregular domes and vacuoles
